# Test system: mast cells
# Test: Anti-allergic effect of active ingredients derived from Taxus cuspidata extract (degranulation, PGE2, TNF-α, IL-4 overall)
# Type: cell-based, rat
# Conditions: overall statement on FIGS. 13 to 16; compounds at 20 μM
# Experimental: Mast cells were cultured in the same manner as in Example 2 above, and then treated with the nine compounds isolated in Example 11 above at a concentration of 20 μM, respectively.
# Mast cells were cultured in the same manner as in Example 3 above, and then treated with the nine compounds isolated in Example 11 above at a concentration of 20 μM, respectively.
# • treated with the 9 compounds isolated in Example 11 at a concentration of 20 μM, respectively.
# Mast cells were cultured in the same manner as in Example 5 above, and then treated with the nine compounds isolated in Example 11 above at a concentration of 20 μM, respectively.
row,SMILES,anti-allergy effects
1,COc1cc(O)cc(OC)c1 [Taxicatigenin],excellent
2,OCCCc1ccc(O)cc1 [3-(4-Hydroxyphenyl)-1-propanol],excellent
3,O=Cc1ccc(O)cc1 [4-hydroxyl benzandehyde],excellent
